Test results published in patent US20020183256A1, “Cytostatic-integrin conjugates having specifically cleavable linking units” (priority 2000, published 2002).
Like-named read-outs stand apart in the source and are kept apart here. *1 amine or outer side, *2 acyl side, *3 side chain or, on linkers, in order; H or OH if unused. Where a SMILES comes first, the peptide text is derived from it. [ ]: non-standard residue; d: D form. The star is where a group is joined. Camptothecin(20R,20-O) = CC[C@]1(O*)C(=O)OCc2c1cc1n(c2=O)Cc2cc3ccccc3nc2-1; X2 = CCCNC(=O)Nc1cccc(S(=O)(=O)Nc2cccc(C(CC(=O)O)NC(=O)Nc3ccc(N*)cc3)c2)c1; X1 = CCCNC(=O)Nc1cccc(S(=O)(=O)Nc2cccc(C(CC(=O)O)N*)c2)c1; NH(1,4-C6H4)NHCS = S=C(Nc1ccc(N[*:1])cc1)[*:2]; CO = O=C([*:1])[*:2]

Experiments:
SW 480 = assay: Growth inhibition test (MTT), cytotoxic action on tumour cell lines; assay type: cell-based, human
Method: (§1) The human large intestine cell lines SW 480 and HT29 (ATCC No. CCL 228 and HTB38 and the mouse melanoma cell line B16F10 (CRL 6475) were grown to confluence in Roux dishes in RPMI 1640 medium with addition of 10% FCS. They were then trypsinized and taken up in RPMI plus 10% FCS to a cell count of 50,000 cells or, for B16F10, 20,000 cells per ml. 100 μl of cell suspension/well were added to a 96 microwell plate and incubated at 37° C. for 1 day in a CO2 incubator. A further 100 μl of RPMI medium and 1 μl of DMSO were then added with the test substances. The growth was checked after day 6. For this, 25 μl of MTT solution (3-(4,5-dimethylthiazol-2-yl)-2,5-diphenyltetrazolium bromide) was added to each well at a starting concentration of 5 mg/ml of H2O. The plate was incubated at 37° C. for 5 hours in a CO2 incubator. The medium was then aspirated and 100 μl of i-propanol/well were added. After shaking with 100 μl of H2O for 30 min, the extinction was measured at 595 nm using a Multiplate Reader (BIO-RAD) 3550-UV).
(§2) The cytostatic action is indicated in Table 2 as an IC50 value, in each case for the individual cell lines.

HT29 = assay: as above; assay type: cell-based, human
Method: as §1, §2

αvβ3 receptor = biological target: T1, αvβ3 receptor (Homo sapiens, UniProt P05106+P06756); assay: αvβ3 binding test (echistatin displacement, WGA SPA beads); conditions: αvβ3 from human A375 cells
T1 construct: αvβ3 from human A375 cells was purified; endogenous in cells; host or cells: human A375 cells (receptor purified from the cells, analogous to Wong et al. 1996)
Method: αvβ3 from human A375 cells was purified analogously to a procedure which was described by Wong et al. (Molecular Pharmacology, 50, 529-537 (1996)). In each case, 10 μl of αvβ3 (5 ng) in TBS pH 7.6, 2 mM CaCl2, 1 mM MgCl2, 1% n-octylglucopyranoside (Sigma); 10 μl of test substance in TBS pH 7.6, 0.1% DMSO and 45 μl of TBS pH 7.6, 2 mM CaCl2, 1 mM MgCl2, 1 mM MnCl2 were incubated at room temperature for 1 h. In each case, 25 μl of WGA SPA beads (Amersham, 4 mg/ml) and 10 μl of echistatin (0.1 μCi, Amersham, chloramine-T labelled) were then added. After 16 hours at room temperature, the samples were measured in a scintillation measuring apparatus (Wallac 1450).

B16F10 = assay: Growth inhibition test (MTT), cytotoxic action on tumour cell lines; assay type: cell-based, mouse
Method: as §1, §2

[1] = SW480, MTT after day 6, read-out: IC50 values of the cytotoxic action on tumour cell lines, SW480
[2] = HT29, MTT after day 6, read-out: IC50 values of the cytotoxic action on tumour cell lines, HT29
[3] = IC50 values of the binding to the αvβ3 receptor
[4] = B16F10, MTT after day 6, read-out: IC50 values of the cytotoxic action on tumour cell lines, B16F10
[5] = read-out: IC50 values of the binding to the αvβ3 receptor

T1 sequence (P06756 31-889 limits assumed): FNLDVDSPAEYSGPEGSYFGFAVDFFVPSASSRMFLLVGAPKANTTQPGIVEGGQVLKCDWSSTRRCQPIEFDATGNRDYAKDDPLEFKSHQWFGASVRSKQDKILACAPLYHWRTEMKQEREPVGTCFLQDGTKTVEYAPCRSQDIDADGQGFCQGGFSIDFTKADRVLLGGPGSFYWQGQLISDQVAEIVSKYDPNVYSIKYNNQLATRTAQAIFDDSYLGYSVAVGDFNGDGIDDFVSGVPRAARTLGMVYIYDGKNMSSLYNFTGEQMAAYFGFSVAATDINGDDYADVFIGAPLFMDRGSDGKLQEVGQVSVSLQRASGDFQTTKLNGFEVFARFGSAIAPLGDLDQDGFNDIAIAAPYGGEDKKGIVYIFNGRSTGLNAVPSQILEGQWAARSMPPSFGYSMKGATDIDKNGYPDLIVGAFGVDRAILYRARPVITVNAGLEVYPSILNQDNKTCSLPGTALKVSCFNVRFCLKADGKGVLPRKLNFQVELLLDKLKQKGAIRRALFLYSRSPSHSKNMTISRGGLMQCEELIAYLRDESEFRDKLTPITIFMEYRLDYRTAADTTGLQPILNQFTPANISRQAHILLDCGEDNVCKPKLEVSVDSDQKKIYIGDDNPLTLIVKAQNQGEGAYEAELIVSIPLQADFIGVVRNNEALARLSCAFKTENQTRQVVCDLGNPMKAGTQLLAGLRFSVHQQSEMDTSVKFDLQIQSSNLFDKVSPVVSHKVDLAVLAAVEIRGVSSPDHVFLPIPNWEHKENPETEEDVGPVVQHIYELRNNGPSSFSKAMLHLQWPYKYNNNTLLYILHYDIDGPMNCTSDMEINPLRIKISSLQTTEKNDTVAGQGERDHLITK
T1 sequence (P06756 891-1048 partner limits assumed): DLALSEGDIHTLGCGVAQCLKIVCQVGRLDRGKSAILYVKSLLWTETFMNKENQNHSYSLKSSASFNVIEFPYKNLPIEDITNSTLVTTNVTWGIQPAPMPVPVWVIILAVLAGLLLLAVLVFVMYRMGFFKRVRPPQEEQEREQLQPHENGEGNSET
T1 sequence (P05106 27-788): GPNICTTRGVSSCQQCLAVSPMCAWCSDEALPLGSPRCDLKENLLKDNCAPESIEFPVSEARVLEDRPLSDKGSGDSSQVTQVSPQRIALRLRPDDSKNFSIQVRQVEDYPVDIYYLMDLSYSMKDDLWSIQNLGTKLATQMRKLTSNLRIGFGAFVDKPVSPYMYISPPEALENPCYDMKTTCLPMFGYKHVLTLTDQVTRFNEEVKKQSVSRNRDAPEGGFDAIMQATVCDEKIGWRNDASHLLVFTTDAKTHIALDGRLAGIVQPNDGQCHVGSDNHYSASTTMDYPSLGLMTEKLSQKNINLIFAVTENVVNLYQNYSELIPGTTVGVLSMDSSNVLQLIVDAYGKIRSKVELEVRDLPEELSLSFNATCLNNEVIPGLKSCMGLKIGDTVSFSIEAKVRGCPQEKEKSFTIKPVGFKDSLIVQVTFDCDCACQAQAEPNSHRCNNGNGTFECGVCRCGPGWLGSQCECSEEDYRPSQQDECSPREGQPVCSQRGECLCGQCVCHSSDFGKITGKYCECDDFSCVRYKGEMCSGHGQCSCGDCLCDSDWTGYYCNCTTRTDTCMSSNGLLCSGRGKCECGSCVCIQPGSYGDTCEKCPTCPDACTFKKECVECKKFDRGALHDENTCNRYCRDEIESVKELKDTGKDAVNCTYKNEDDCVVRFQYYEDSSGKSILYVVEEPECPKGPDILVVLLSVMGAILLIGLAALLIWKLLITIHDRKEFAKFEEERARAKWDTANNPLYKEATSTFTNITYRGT

`CCCNC(=O)Nc1cccc(S(=O)(=O)Nc2cccc(C(CC(=O)O)NC(=O)Nc3ccc(NC(=S)N4CCCC4C(=O)NC(CC(C)C)C(=O)NCC(=O)N[C@H](CC(C)C)C(=O)N[C@@H](C(=O)O[C@@]4(CC)C(=O)OCc5c4cc4n(c5=O)Cc5cc6ccccc6nc5-4)C(C)C)cc3)c2)c1` (stereo partly drawn) [Example 8] was tested, and the IC50 (SW 480; [1]) was 200 nM, the IC50 (HT29; [2]) was 150 nM and the IC50 (αvβ3 receptor; [3]) was 30 nM. For the same compound, the IC50 (B16F10; [4]) was 350 nM.

`CCCNC(=O)Nc1cccc(S(=O)(=O)Nc2cccc(C(CC(=O)O)NC(=O)Nc3ccc(NC(=S)N4CCC[C@@H]4C(=O)N[C@@H](CC(C)C)C(=O)NCC(=O)N[C@H](CC(C)C)C(=O)N[C@H](CC(N)=O)C(=O)N[C@@H](C(=O)O[C@@]4(CC)C(=O)OCc5c4cc4n(c5=O)Cc5cc6ccccc6nc5-4)C(C)C)cc3)c2)c1` (stereo partly drawn) [Example 9] gave an IC50 (SW 480; human, 6 days) of 60 nM, an IC50 (HT29; human, 6 days) of 80 nM and an IC50 (αvβ3 receptor; [5]) of 30 nM. The IC50 (B16F10; mouse, 6 days) was 400 nM.

In the case of `CCCNC(=O)Nc1cccc(S(=O)(=O)Nc2cccc(C(CC(=O)O)NC(=O)Nc3ccc(NC(=S)N4CCC[C@@H]4C(=O)N[C@@H](CC(C)C)C(=O)NCC(=O)N[C@H](CC(C)C)C(=O)N[C@H](CSC)C(=O)N[C@@H](C(=O)O[C@@]4(CC)C(=O)OCc5c4cc4n(c5=O)Cc5cc6ccccc6nc5-4)C(C)C)cc3)c2)c1` (stereo partly drawn) [Example 13] ({X1-CO}-[NH(1,4-C6H4)NHCS][dP]LG[dL][dC](Me)[dV]-{Camptothecin(20R,20-O)}), the IC50 (SW 480; [1]) is reported as 80 nM, the IC50 (HT29; [2]) is reported as 100 nM and the IC50 (αvβ3 receptor; [3]) is reported as 50 nM. It also gave an IC50 (B16F10; [4]) of 400 nM.

`CCCNC(=O)Nc1cccc(S(=O)(=O)Nc2cccc(C(CC(=O)O)NC(=O)Nc3ccc(NC(=O)N4CCC[C@@H]4C(=O)N[C@@H](CC(C)C)C(=O)NCC(=O)N[C@H](CC(C)C)C(=O)N[C@H](Cc4c[nH]c5ccccc45)C(=O)N[C@@H](C(=O)O[C@@]4(CC)C(=O)OCc5c4cc4n(c5=O)Cc5cc6ccccc6nc5-4)C(C)C)cc3)c2)c1` (stereo partly drawn) [Example 15] ({X2-CO}-[dP]LG[dL][dW][dV]-{Camptothecin(20R,20-O)}) showed an IC50 (SW 480; [1]) of 1500 nM, an IC50 (HT29; [2]) of 500 nM and an IC50 (αvβ3 receptor; [3]) of 500 nM. The IC50 (B16F10; [4]) was 8000 nM.

With `CCCNC(=O)Nc1cccc(S(=O)(=O)Nc2cccc(C(CC(=O)O)NC(=O)Nc3ccc(NC(=S)N4CCC[C@@H]4C(=O)N[C@@H](CC(C)C)C(=O)NCC(=O)N[C@H](CSC)C(=O)N[C@H](Cc4c[nH]cn4)C(=O)N[C@@H](C(=O)O[C@@]4(CC)C(=O)OCc5c4cc4n(c5=O)Cc5cc6ccccc6nc5-4)C(C)C)cc3)c2)c1` (stereo partly drawn) [Example 19] the IC50 (SW 480; human, 6 days) was 60 nM, the IC50 (HT29; human, 6 days) was 80 nM and the IC50 (αvβ3 receptor; [5]) was 20 nM. It also gave an IC50 (B16F10; mouse, 6 days) of 300 nM.

`CCCNC(=O)Nc1cccc(S(=O)(=O)Nc2cccc(C(CC(=O)O)NC(=O)Nc3ccc(NC(=S)N4CCC[C@@H]4C(=O)N[C@@H](CC(C)C)C(=O)NCC(=O)N[C@H](CC(C)C)C(=O)N[C@H](CCCCN)C(=O)N[C@H](C(=O)O[C@@]4(CC)C(=O)OCc5c4cc4n(c5=O)Cc5cc6ccccc6nc5-4)C(C)C)cc3)c2)c1` (stereo partly drawn) [Example 20] ({X1-CO}-[NH(1,4-C6H4)NHCS][dP]LG[dL][dK]V-{Camptothecin(20R,20-O)}) was tested, and the IC50 (SW 480; [1]) was 50 nM, the IC50 (HT29; [2]) was 70 nM and the IC50 (αvβ3 receptor; [3]) was 50 nM. The IC50 (B16F10; [4]) was 300 nM.
